Source: US10260108B2, “PARP genomic variants conferring resistance and sensitization to chemotherapy under inhibition” (University of Pittsburgh—Of the Commonwealth System of …, priority 2014, dated 2019)
pIC50: −log10 of the molar value.

Assays:
[1] = system: metastatic melanoma patients; assay: Response to TMZ treatment in metastatic melanoma patients by rs1805407 genotype; format: in vivo, human; settings: all 21 patients that had the SNP rs1805407 (C/T or C/C)
Excerpt: The melanoma dataset consisted of whole genome gene expression, microRNA expression, DNA methylation, and data from the selected SNP panel. MGM-Learn was used to learn a network over the top 1000 features most correlated (pairwise) with “response” to treatment clinical variable, a binary variable indicating response/no response to temozolomide (TMZ) treatment dichotomized at presence of a response or stability of disease at 4 months of therapy. The 1,000 most correlated features in the input dataset included 557 mRNA expression probes, 425 methylation probes, 14 miRNA probes and 4 SNPs. […] The largest interconnected output network included 20 features connected to the response variable in our initial (undirected) learned network (FIG. 2A). It was emphasized that these features were connected to the response variable not only because they have high pairwise correlation with it (FIG. 2B), but also because they are dependent on response even when conditioned on all other variables included in the input. In this sense, they represent direct (causal) interactions and not simple biomarkers. From the 20 features initially connected to response, 15 were left connected after causal filtering (FIG. 2A, black lines). […]
Melanoma study design: Using a retrospective cohort study design, 69 patients with metastatic melanoma who were treated with alkylator-based chemotherapy were evaluated. […]

NCI-60 cell lines = assay: NCI-60 […] IC50 values, cell lines with rs1805407 vs wild type; format: cell-based; settings: NCI60 IC50 values, C/T or C/C (n=23) vs T/T (n=37)
Excerpt: Given that TMZ damages the DNA and PARP1 has a critical role in DNA repair, one plausible hypothesis is that rs1805407 is either associated with increased PARP1 activity or decreased PARP1 trapping after treatment with alkylating agents (Murai J, et al. (2012) Cancer Res 72(21):5588-5599). The role of rs1805407 in cell response to various drugs was investigated. The NCI-60 […]™ database (Reinhold W C, et al. (2012) Cancer Res 72(14):3499-3511) contains the response of 60 cell lines to ˜50,000 compounds. It was evaluated whether drugs affect differentially the cell lines that have at least one copy of rs1805407 (C/T or C/C) vs wild type (T/T).
SNP imputation on TCGA samples and NCI-60 cell lines: NCI-60 data were obtained from Cell Miner in June 2013 (discover.nci_nih.gov/cellminer/). For those cell lines or TCGA samples for which the identity of SNP rs1805407 was not available we used imputation to infer its identity. Using SNAP (17) we found 51 SNPs to be in perfect linkage disequilibrium (LD) with rs1805407 (R^2=1). Of these, 9 variants were covered by the Affymetrix SNP Array 6.0 used by the TCGA. To determine the rs1805407 genotype in TCGA samples birdseed calls (Korn J M, et al. (2008) Nature genetics 40(10):1253-126) from Affymetrix Genome-Wide Human SNP Array 6.0 were used. Only samples with a birdseed confidence less than 0.1 or where all 9 SNPs in perfect LD agreed with the birdseed call were used.

H-522 = assay: MTT cell proliferation assay, MMS alone or with ABT-888; format: cell-based; settings: Homo sapiens, NCI-H522, H-522 lung, PARP1/SNP T/T, MMS alone, 72 h, mean (±SD)
Excerpt: (§1) PARP1 cell proliferation and drug interaction assays: RPMI 1640 and Dulbecco's modified Eagle medium (DMEM) with L-Glutamine, cell culture media were purchased from Cellgro (Mediatech, Inc.). Heat-inactivated Foundation Fetal bovine serum (FBS) was purchased from Gemini bio-products. The alkylating agent, methyl methanesulfonate (MMS) was purchased from Sigma. The PARPi veliparib (ABT-888, Abbott Laboratories, Abbott Park, Ill., USA) was used in the cell proliferation assays. The ABT-888 used in the drug interaction assays was purchased from Selleck Chemicals LLC (Huston, Tex., USA). MMS is an alkylating agent that results in DNA damage at the same bases as dacarbazine and temozolomide and has been used extensively as an alternative in the laboratory setting. ABT-888 was dissolved in dimethyl sulfoxide (DMSO) to a stock solution of 10 mM. A 10 μM working solution was then prepared in PBS for subsequent serial dilutions.
(§2) The cytotoxic effect of the PARP inhibitor veliparib (ABT-888) and the alkylating agent, MMS was assessed using the MTT colorimetric dye reduction assay, according to the manufacturer's instructions (TACS® MTT Cell Proliferation Assay (MTT-CPA) from Trevigen, Inc.). MTT assay was used for each cell line to determine the half-maximal (50%) inhibitory concentration (IC50) values of MMS alone or in combination with ABT-888. Briefly, cells were seeded in triplicates in 96 wells at appropriate cell density (optimized for each individual cell line to have exponentially growing cells during the course of the assay), in their regular culture medium (DMEM with L-Glutamine from Cellgro (Mediatech, Inc.)). After 24 h, the medium was aspirated and the cells were incubated with increasing concentrations of MMS alone (0 to 1 mM) or in the presence of a fixed concentration (10 nM final) of ABT-888 (six replicates for each combination treatment) for 72 h at 37° C. Then, 10 μl of MTT Reagent was added to each well and the plates were incubated for another 4 h at 37° C. in the dark. In each well, 100 μl of Detergent Reagent was then added and incubated at 37° C. until complete solubilization of formazan crystals.
(§3) In single drug treatment experiments (MMS alone), drug-free controls containing 0.5% DMSO were included. In drug combination experiments with increasing concentrations of MMS, the samples with PARPi alone (fixed concentration of 10 nM of ABT-888), were used as controls. All control values were normalized to 100%. Cell viability was measured by reading the absorbance at 570 nm using a Tecan (Safire 2) microplate reader. Reading was converted to the percentage of the controls. The values obtained for each of the triplicates were averaged, and IC50 values were defined as the concentrations of drug(s) that inhibited growth by 50% relative to controls. The data from the MTT assay were expressed as mean IC50±standard deviation (SD). The IC50 of ABT-888, MMS and linear regression analysis were computed by […] Prism 5.0 program ([…] Software, Inc., San Diego, Calif.). For each cell line, the P-value was calculated using the Student t-test (two-tailed, paired) to compare the IC50 means of each treatment group (MMS alone or MMS+ABT-888).

SW620 = assay: as above; format: cell-based; settings: Homo sapiens, SW-620, SW620 colon, PARP1/SNP T/T, MMS alone, 72 h, mean (±SD)
Excerpt: as §1, §2, §3

A375 = assay: as above; format: cell-based; settings: Homo sapiens, A-375, A375 melanoma, PARP1/SNP T/T, MMS alone, 72 h, mean (±SD)
Excerpt: as §1, §2, §3

A2780 = assay: as above; format: cell-based; settings: Homo sapiens, A2780 ovarian, PARP1/SNP C/T, MMS alone, 72 h, mean (±SD)
Excerpt: as §1, §2, §3

MCF-7 = assay: as above; format: cell-based; settings: Homo sapiens, MCF7, MCF-7 breast, PARP1/SNP C/T, MMS alone, 72 h, mean (±SD)
Excerpt: as §1, §2, §3

A549 = assay: as above; format: cell-based; settings: Homo sapiens, A549 lung, PARP1/SNP C/T, MMS alone, 72 h, mean (±SD)
Excerpt: as §1, §2, §3

MDA-MB-231 = assay: as above; format: cell-based; settings: Homo sapiens, MDA-MB-231 breast, PARP1/SNP C/T, MMS alone, 72 h, mean (±SD)
Excerpt: as §1, §2, §3

M14 = assay: as above; format: cell-based; settings: Homo sapiens, M14 melanoma, PARP1/SNP C/T, MMS alone, 72 h, mean (±SD)
Excerpt: as §1, §2, §3

FEMX = assay: as above; format: cell-based; settings: Homo sapiens, Fem-X, FEMX melanoma, PARP1/SNP T/T, MMS alone, 72 h, mean (±SD)
Excerpt: as §1, §2, §3

Cn1nnc2c(C(N)=O)ncn2c1=O [TMZ, temozolomide]
response to TMZ treatment [1]: no response

O=P1(N(CCCl)CCCl)NCCCO1 (centres unmarked) [Cyclophosphamide]
resistance or sensitivity of cell lines with at least one allele of rs1805407 vs wild type (NCI-60 cell lines): Increased resistance

O=NN(CCCl)C(=O)NCCCl [Carmustine]
resistance or sensitivity of cell lines with at least one allele of rs1805407 vs wild type (NCI-60 cell lines): Increased resistance

CC1=C(CO)C2=C(C)C3(CC3)[C@@](C)(O)C(=O)C2=C1 [Irofulven, Hydroxymethylacylfulvene]
resistance or sensitivity of cell lines with at least one allele of rs1805407 vs wild type (NCI-60 cell lines): Increased sensitivity

O=C(c1cc(Cc2n[nH]c(=O)c3ccccc23)ccc1F)N1CCN(C(=O)C2CC2)CC1 [olaparib]
resistance or sensitivity of cell lines with at least one allele of rs1805407 vs wild type (NCI-60 cell lines): slight increase in sensitivity

COS(C)(=O)=O [MMS, methyl methanesulfonate]
pIC50 (H-522): 3.24
pIC50 (SW620): 3.52
pIC50 (A375): 3.51
pIC50 (A2780): 3.72
pIC50 (MCF-7): 3.71
pIC50 (A549): 3.59
pIC50 (MDA-MB-231): 3.59
pIC50 (M14): 3.28
pIC50 (FEMX): 3.78
